“And” between values parts separate entries of the source, which are not always exact repeats. Equal entries are not always repeated. Where two headings read alike, the source gives them in different places.
Legend:
Type in all cases: biochemical
Caspase-2 = target: T1, Caspase-2 (Homo sapiens, UniProt P42575); experiment: Caspase-2 inhibitor screening assay (BioVision kit, VDVAD-AFC); conditions: for inhibition at 10 µM: read-out: % Inhibition at 10 uM Casp2; for inhibition at 100 µM: read-out: % Inhibition at 100 uM Casp2; for IC50: read-out: IC50 Casp2
T1 construct: mixing the compounds with the respective active caspases; purchased BioVision K152-100
T1 sequence (P42575 170-325 limits assumed): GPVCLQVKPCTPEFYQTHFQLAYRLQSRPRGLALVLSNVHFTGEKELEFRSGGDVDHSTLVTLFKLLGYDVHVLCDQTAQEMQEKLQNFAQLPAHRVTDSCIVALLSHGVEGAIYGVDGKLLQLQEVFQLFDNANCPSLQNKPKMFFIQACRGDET
T1 sequence (P42575 334-452 limits assumed): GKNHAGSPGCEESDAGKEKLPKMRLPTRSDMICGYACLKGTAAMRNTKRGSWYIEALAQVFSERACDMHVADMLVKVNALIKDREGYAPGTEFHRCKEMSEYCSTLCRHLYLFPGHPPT
Outline: (§1)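 Each caspase cleaved its own AFC-labelled peptide substrate, and released AFC was read by fluorescence. % inhibition came from RFU against an uninhibited control.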

Caspase-10 = target: T2, Caspase-10 (Homo sapiens, UniProt Q92851); experiment: Caspase-10 inhibitor screening assay (BioVision kit, AEVD-AFC); conditions: for inhibition at 10 µM: read-out: % Inhibition at 10 uM Casp10; for inhibition at 100 µM: read-out: % Inhibition at 100 uM Casp10
T2 construct: mixing the compounds with the respective active caspases; purchased BioVision K160-100
T2 sequence (Q92851 220-415 limits assumed): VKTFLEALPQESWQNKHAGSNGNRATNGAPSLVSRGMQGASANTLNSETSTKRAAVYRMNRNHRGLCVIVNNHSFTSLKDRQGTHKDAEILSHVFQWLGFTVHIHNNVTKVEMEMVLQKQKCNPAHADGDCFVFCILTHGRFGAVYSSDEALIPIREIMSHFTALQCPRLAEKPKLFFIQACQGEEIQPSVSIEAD
T2 sequence (Q92851 416-521 limits assumed): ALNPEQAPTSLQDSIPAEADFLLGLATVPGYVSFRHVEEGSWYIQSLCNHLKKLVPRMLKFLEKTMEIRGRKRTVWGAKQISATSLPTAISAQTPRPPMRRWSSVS
Outline: as §1

Caspase-8 = target: T3, Caspase-8 (Homo sapiens, UniProt Q14790); experiment: Caspase-8 inhibitor screening assay (BioVision kit, IETD-AFC); conditions: for inhibition at 10 µM: read-out: % Inhibition at 10 uM Casp8; for inhibition at 100 µM: read-out: % Inhibition at 100 uM Casp8; for IC50: read-out: IC50 Casp8
T3 construct: mixing the compounds with the respective active caspases; purchased BioVision K158-100
Outline: as §1

Caspase-3 = target: T4, Caspase-3 (Homo sapiens, UniProt P42574); experiment: Caspase-3 inhibitor screening assay (BioVision kit, DEVD-AFC); conditions: for inhibition at 10 µM: read-out: % Inhibition at 10 uM Casp3; for inhibition at 100 µM: read-out: % Inhibition at 100 uM Casp3; for IC50: read-out: IC50 Casp3
T4 construct: mixing the compounds with the respective active caspases; purchased BioVision K153-100
T4 sequence (P42574 29-175 limits assumed): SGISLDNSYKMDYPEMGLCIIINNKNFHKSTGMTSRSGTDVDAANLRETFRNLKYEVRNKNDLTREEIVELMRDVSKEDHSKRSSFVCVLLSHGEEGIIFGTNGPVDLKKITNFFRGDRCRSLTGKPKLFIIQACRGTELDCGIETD
T4 sequence (P42574 176-277 limits assumed): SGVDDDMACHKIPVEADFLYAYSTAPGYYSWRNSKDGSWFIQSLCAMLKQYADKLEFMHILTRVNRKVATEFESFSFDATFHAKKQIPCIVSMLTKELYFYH
Outline: as §1

Caspase-4 = target: T5, Caspase-4 (Homo sapiens, UniProt P49662); experiment: Caspase-4 inhibitor screening assay (BioVision kit, LEVD-AFC); conditions: for inhibition at 10 µM: read-out: % Inhibition at 10 uM Casp4; for inhibition at 100 µM: read-out: % Inhibition at 100 uM Casp4
T5 construct: mixing the compounds with the respective active caspases; purchased BioVision K154-100
T5 sequence (P49662 81-270 limits assumed): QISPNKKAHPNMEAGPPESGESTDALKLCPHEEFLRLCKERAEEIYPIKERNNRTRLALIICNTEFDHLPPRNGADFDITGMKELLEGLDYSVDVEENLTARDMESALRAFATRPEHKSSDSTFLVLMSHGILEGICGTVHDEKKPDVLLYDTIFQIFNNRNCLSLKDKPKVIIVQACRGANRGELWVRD
T5 sequence (P49662 290-377 limits assumed): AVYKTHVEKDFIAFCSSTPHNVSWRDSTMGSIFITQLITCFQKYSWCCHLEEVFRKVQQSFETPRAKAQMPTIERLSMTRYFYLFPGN
Outline: as §1

Caspase-7 = target: T6, Caspase-7 (Homo sapiens, UniProt P55210); experiment: Caspase-7 inhibitor screening assay (BioVision kit, DEVD-AFC); conditions: for inhibition at 10 µM: read-out: % Inhibition at 10 uM Casp7; for inhibition at 100 µM: read-out: % Inhibition at 100 uM Casp7; for IC50: read-out: IC50 Casp7
T6 construct: mixing the compounds with the respective active caspases; purchased BioVision K157-100
T6 sequence (P55210 24-198 limits assumed): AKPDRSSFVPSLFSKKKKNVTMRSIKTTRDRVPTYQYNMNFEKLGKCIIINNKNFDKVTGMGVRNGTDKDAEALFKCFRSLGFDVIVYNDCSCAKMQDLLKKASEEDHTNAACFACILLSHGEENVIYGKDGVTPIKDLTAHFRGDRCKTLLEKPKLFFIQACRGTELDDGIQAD
T6 sequence (P55210 207-303 limits assumed): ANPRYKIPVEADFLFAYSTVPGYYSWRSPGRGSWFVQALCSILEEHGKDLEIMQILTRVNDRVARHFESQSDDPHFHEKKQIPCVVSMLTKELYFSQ
Outline: as §1

T3 sequence (Q14790 217-374 limits assumed): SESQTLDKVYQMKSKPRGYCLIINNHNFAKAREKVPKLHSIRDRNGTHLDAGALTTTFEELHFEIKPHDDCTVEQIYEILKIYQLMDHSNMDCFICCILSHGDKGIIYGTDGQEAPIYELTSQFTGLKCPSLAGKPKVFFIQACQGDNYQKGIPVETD
T3 sequence (Q14790 385-479 limits assumed): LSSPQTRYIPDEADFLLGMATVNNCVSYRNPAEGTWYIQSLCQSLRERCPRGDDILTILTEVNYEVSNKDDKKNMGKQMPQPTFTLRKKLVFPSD

inhibition at 10 µM (Caspase-2) [%]	inhibition at 100 µM (Caspase-2) [%]	IC50 (Caspase-2) [µM]	inhibition at 10 µM (Caspase-10) [%]	inhibition at 100 µM (Caspase-10) [%]	IC50 (Caspase-10; read-out: IC50 Casp10) [µM]	inhibition at 10 µM (Caspase-8) [%]	inhibition at 100 µM (Caspase-8) [%]	IC50 (Caspase-8)	inhibition at 10 µM (Caspase-3) [%]	inhibition at 100 µM (Caspase-3) [%]	IC50 (Caspase-3) [µM]	inhibition at 10 µM (Caspase-4) [%]	inhibition at 100 µM (Caspase-4) [%]	IC50 (Caspase-4; read-out: IC50 Casp4) [µM]	inhibition at 10 µM (Caspase-7) [%]	inhibition at 100 µM (Caspase-7) [%]	IC50 (Caspase-7) [µM]	SMILES	further results
1	10	> 100	81	100	2.67	46	95	12.8 µM and 12.9 µM	7	18	> 100	100	100	0.09	13	91	24.5	CC(C)(C)[C@H](NC(=O)c1ccc(N)c(Cl)c1)C(=O)N1CCCC1C(=O)N[C@H](/C=C/S(C)(=O)=O)CC(=O)O (stereo in doubt) [Compound 14, 4-amino-3-chlorobenzene carbonyl-t-Leu-Pro-Asp methyl vinyl sulfone]	IC50 (Caspase-10; read-out: potency (IC50) against caspase-10): 2.67 µM; IC50 (Caspase-4; read-out: potency (IC50) against caspase-4): 0.087 µM
1	10	> 100	80	99	3.29	61	96	5.93 µM	63	94	6.55	100	100	0.18	19	90	23.7	CC(C)[C@H](NC(=O)[C@H](CCC(=O)O)NC(=O)[C@H](Cc1c[nH]c2ccccc12)NC(=O)OCc1ccccc1)C(=O)N[C@H](/C=C/S(C)(=O)=O)CC(=O)O [Compound 40, Z-Trp-Glu-Val-Asp-methyl vinyl sulfone]	–
3	6	> 100	65	98	4.67	34	94	14.7 µM	12	16	> 100	91	100	1.92	3	73	53.6	CC(C)(C)[C@H](NC(=O)c1ccc2ncccc2c1)C(=O)N1CCCC1C(=O)N[C@H](/C=C/S(C)(=O)=O)CC(=O)O (stereo in doubt) [Compound 10, Quinoline-6-carbonyl-t-Leu-Pro-Asp methyl vinyl sulfone]	–
–	–	10	–	–	0.03	–	–	0.19 µM	–	–	0.58	–	–	1.27	–	–	> 100	CCOC(=O)/C=C/[C@H](CC(=O)O)NC(=O)[C@@H](NC(=O)[C@H](CCC(=O)O)NC(=O)[C@@H](NC(=O)OCc1ccccc1)C(C)C)C(C)CC (stereo partly drawn) [Compound 124, Z-Val-Glu-Ile-Asp-Ethyl Vinyl ester]	–
22	79	30.4	82	99	2.45	20	80	27.6 µM	91	99	0.78	73	100	5.22	87	99	2.5	CS(=O)(=O)/C=C/[C@H](CC(=O)O)NC(=O)C1CCCN1C(=O)[C@@H](NC(=O)[C@H](CC(=O)O)NC(=O)OCc1ccccc1)C1CC1 (stereo in doubt) [Compound 28, Z-Asp-Cyclopropylglycine-Pro-Asp-methyl vinyl sulfone]	change of potency against caspase-3 relative to compound 26 (Caspase-3; replacement of t-Leu at P3 of compound 26): 7 fold
